Results as given in patent publication US20210403465A1, “QUINAZOLINYL-INDAZOLE DERIVATIVES AND THEIR USE AS INHIBITORS OF HUMAN IMMUNODEFICIENCY VIRUS REPLICATION” (ViiV HEALTHCARE UK (NO.5) LIMITED, priority 2018, published 2021).

Columns and labels:
[1] = test system: recombinant NL4-3 virus (Renilla luciferase) in MT-2 cells; experiment: HIV cell culture assay (antiviral activity, luciferase readout in MT-2 cells); format: cell-based; conditions: NL43
Experimental: HIV cell culture assay—MT-2 cells, 293T cells and the proviral DNA clone of NL4-3 virus were obtained from the NIH AIDS Research and Reference Reagent Program. MT-2 cells were propagated in RPMI 1640 media supplemented with 10% heat inactivated fetal bovine serum (FBS), […]. The 293T cells were propagated in DMEM media supplemented with 10% heat inactivated FBS, […]. A recombinant NL4-3 proviral clone, in which a section of the nef gene was replaced with the Renilla luciferase gene, was used to make the reference virus used in these studies. The recombinant virus was prepared through transfection of the recombinant NL4-3 proviral clone into 293T cells using Transit-293 Transfection Reagent from Mirus Bio LLC (Madison, Wis.). Supernatant was harvested after 2-3 days and the amount of virus present was titered in MT-2 cells using luciferase enzyme activity as a marker by measuring luciferase enzyme activity. Luciferase was quantitated using the EnduRen Live Cell Substrate from Promega (Madison, Wis.). Antiviral activities of compounds toward the recombinant virus were quantified by measuring luciferase activity in MT-2 cells infected for 4-5 days with the recombinant virus in the presence of serial dilutions of the compound.
The 50% effective concentration (EC50) was calculated by using the exponential form of the median effect equation where (Fa)=1/[1+(ED50/drug conc.)m] (Johnson V A, Byington R T. Infectivity Assay. In Techniques in HIV Research. ed. Aldovini A, Walker B D. 71-76. New York: Stockton Press. 1990). The 50% inhibitory concentration (EC50) was calculated by using the exponential form of the median effect equation where percent inhibition=1/[1+(EC50/drug concentration)m], where m is a parameter that reflects the slope of the concentration-response curve.

[2] = Compound cytotoxicity, XTT-based colorimetric assay; format: cell-based; conditions: human; uninfected MT2 cells, day 4, XTT
Experimental: Compound cytotoxicity and the corresponding CC50 values were determined using the same protocol as described in the antiviral assay except that uninfected cells were used. Cytotoxicity was assessed on day 4 in uninfected MT2 cells by using a XTT (2,3-bis[2-Methoxy-4-nitro-5-sulfophenyl]-2H-tetrazolium-5-carboxyanilide inner salt)-based colorimetric assay (Sigma-Aldrich, St Louis, Mo.).

Row | Structure (SMILES) | EC50 [1] [nM] | CC50 at 4 days [2] [nM]
1 | Cn1nc(NS(C)(=O)=O)c2c(Cl)ccc(-n3c([C@H](Cc4cc(F)cc(F)c4)NC(=O)Cn4nc(C(F)F)c5c4C(F)(F)[C@@H]4C[C@H]54)nc4cc(OCC5CCCC5)ccc4c3=O)c21 (atropisomer, axis not shown; (P)) [Example 2, N—((S)-1-((3P)-3-(4-chloro-1-methyl-3-(methylsulfonamido)-1H-indazol-7-yl)-7-(cyclopentylmethoxy)-4-oxo-3,4-dihydroquinazolin-2-yl)-2-(3,5-difluorophenyl)ethyl)-2-((3bS,4aR)-3-(difluoromethyl)-5,5-difluoro-3b,4,4a,5-tetrahydro-1H-cyclopropa[3,4]cyclopenta[1,2-c]pyrazol-1-yl)acetamide] | 0.18 | > 1000
2 | Cn1nc(NS(C)(=O)=O)c2c(Cl)ccc(-n3c([C@H](Cc4cc(F)cc(F)c4)NC(=O)Cn4nc(C(F)F)c5c4C(F)(F)[C@@H]4C[C@H]54)nc4cc(OCC5CCCCC5)ccc4c3=O)c21 (atropisomer, axis not shown; (P)) [Example 3, N—((S)-1-((3P)-3-(4-chloro-1-methyl-3-(methylsulfonamido)-1H-indazol-7-yl)-7-(cyclohexylmethoxy)-4-oxo-3,4-dihydroquinazolin-2-yl)-2-(3,5-difluorophenyl)ethyl)-2-((3bS,4aR)-3-(difluoromethyl)-5,5-difluoro-3b,4,4a,5-tetrahydro-1H-cyclopropa[3,4]cyclopenta[1,2-c]pyrazol-1-yl)acetamide] | 0.47 | > 1000
3 | Cn1nc(NS(C)(=O)=O)c2c(Cl)ccc(-n3c([C@H](Cc4cc(F)cc(F)c4)NC(=O)Cn4nc(C(F)F)c5c4C(F)(F)[C@@H]4C[C@H]54)nc4cc(OCCN5CCS(=O)(=O)CC5)ccc4c3=O)c21 (atropisomer, axis not shown; (P)) [Example 4, N—((S)-1-((3P)-3-(4-chloro-1-methyl-3-(methylsulfonamido)-1H-indazol-7-yl)-7-(2-(1,1-dioxidothiomorpholino)ethoxy)-4-oxo-3,4-dihydroquinazolin-2-yl)-2-(3,5-difluorophenyl)ethyl)-2-((3bS,4aR)-3-(difluoromethyl)-5,5-difluoro-3b,4,4a,5-tetrahydro-1H-cyclopropa[3,4]cyclopenta[1,2-c]pyrazol-1-yl)acetamide] | 0.08 | > 1000
4 | Cn1nc(NS(C)(=O)=O)c2c(Cl)ccc(-n3c([C@H](Cc4cc(F)cc(F)c4)NC(=O)Cn4nc(C(F)F)c5c4C(F)(F)[C@@H]4C[C@H]54)nc4cc(OCCOc5ccccc5)ccc4c3=O)c21 (atropisomer, axis not shown; (P)) [Example 5, N—((S)-1-((3P)-3-(4-chloro-1-methyl-3-(methylsulfonamido)-1H-indazol-7-yl)-4-oxo-7-(2-phenoxyethoxy)-3,4-dihydroquinazolin-2-yl)-2-(3,5-difluorophenyl)ethyl)-2-((3bS,4aR)-3-(difluoromethyl)-5,5-difluoro-3b,4,4a,5-tetrahydro-1H-cyclopropa[3,4]cyclopenta[1,2-c]pyrazol-1-yl)acetamide] | 0.36 | > 1000
5 | Cn1nc(NS(C)(=O)=O)c2c(Cl)ccc(-n3c([C@H](Cc4cc(F)cc(F)c4)NC(=O)Cn4nc(C(F)F)c5c4C(F)(F)[C@@H]4C[C@H]54)nc4cc(OCCC(C)(C)C)ccc4c3=O)c21 (atropisomer, axis not shown; (P)) [Example 6, N—((S)-1-((3P)-3-(4-chloro-1-methyl-3-(methylsulfonamido)-1H-indazol-7-yl)-7-(3,3-dimethylbutoxy)-4-oxo-3,4-dihydroquinazolin-2-yl)-2-(3,5-difluorophenyl)ethyl)-2-((3bS,4aR)-3-(difluoromethyl)-5,5-difluoro-3b,4,4a,5-tetrahydro-1H-cyclopropa[3,4]cyclopenta[1,2-c]pyrazol-1-yl)acetamide] | 0.18 | > 1000
6 | Cn1nccc1CCOc1ccc2c(=O)n(-c3ccc(Cl)c4c(NS(C)(=O)=O)nn(C)c34)c([C@H](Cc3cc(F)cc(F)c3)NC(=O)Cn3nc(C(F)F)c4c3C(F)(F)[C@@H]3C[C@H]43)nc2c1 (atropisomer, axis not shown; (P)) [Example 7, N—((S)-1-((3P)-3-(4-chloro-1-methyl-3-(methylsulfonamido)-1H-indazol-7-yl)-7-(2-(1-methyl-1H-pyrazol-5-yl)ethoxy)-4-oxo-3,4-dihydroquinazolin-2-yl)-2-(3,5-difluorophenyl)ethyl)-2-((3bS,4aR)-3-(difluoromethyl)-5,5-difluoro-3b,4,4a,5-tetrahydro-1H-cyclopropa[3,4]cyclopenta[1,2-c]pyrazol-1-yl)acetamide] | 0.074 | > 1000
7 | Cn1nc(NS(C)(=O)=O)c2c(Cl)ccc(-n3c([C@H](Cc4cc(F)cc(F)c4)NC(=O)Cn4nc(C(F)F)c5c4C(F)(F)[C@@H]4C[C@H]54)nc4cc(OC5CCCC5)ccc4c3=O)c21 (atropisomer, axis not shown; (P)) [Example 9, N—((S)-1-((3P)-3-(4-chloro-1-methyl-3-(methylsulfonamido)-1H-indazol-7-yl)-7-(cyclopentyloxy)-4-oxo-3,4-dihydroquinazolin-2-yl)-2-(3,5-difluorophenyl)ethyl)-2-((3bS,4aR)-3-(difluoromethyl)-5,5-difluoro-3b,4,4a,5-tetrahydro-1H-cyclopropa[3,4]cyclopenta[1,2-c]pyrazol-1-yl)acetamide] | 0.22 | > 1000
8 | Cn1nc(NS(C)(=O)=O)c2c(Cl)ccc(-n3c([C@H](Cc4cc(F)cc(F)c4)NC(=O)Cn4nc(C(F)F)c5c4C(F)(F)[C@@H]4C[C@H]54)nc4cc(OC5CCOCC5)ccc4c3=O)c21 (atropisomer, axis not shown; (P)) [Example 10, N—((S)-1-((3P)-3-(4-chloro-1-methyl-3-(methylsulfonamido)-1H-indazol-7-yl)-4-oxo-7-((tetrahydro-2H-pyran-4-yl)oxy)-3,4-dihydroquinazolin-2-yl)-2-(3,5-difluorophenyl)ethyl)-2-((3bS,4aR)-3-(difluoromethyl)-5,5-difluoro-3b,4,4a,5-tetrahydro-1H-cyclopropa[3,4]cyclopenta[1,2-c]pyrazol-1-yl)acetamide] | 0.036 | > 1000
9 | Cn1nc(NS(C)(=O)=O)c2c(Cl)ccc(-n3c([C@H](Cc4cc(F)cc(F)c4)NC(=O)Cn4nc(C(F)F)c5c4C(F)(F)[C@@H]4C[C@H]54)nc4cc(OCc5cncnc5)ccc4c3=O)c21 (atropisomer, axis not shown; (P)) [Example 11, N—((S)-1-((3P)-3-(4-chloro-1-methyl-3-(methylsulfonamido)-1H-indazol-7-yl)-4-oxo-7-(pyrimidin-5-ylmethoxy)-3,4-dihydroquinazolin-2-yl)-2-(3,5-difluorophenyl)ethyl)-2-((3bS,4aR)-3-(difluoromethyl)-5,5-difluoro-3b,4,4a,5-tetrahydro-1H-cyclopropa[3,4]cyclopenta[1,2-c]pyrazol-1-yl)acetamide] | 0.066 | > 1000
10 | Cn1nc(NS(C)(=O)=O)c2c(Cl)ccc(-n3c([C@H](Cc4cc(F)cc(F)c4)NC(=O)Cn4nc(C(F)F)c5c4C(F)(F)[C@@H]4C[C@H]54)nc4cc(OCC5CCC5)ccc4c3=O)c21 (atropisomer, axis not shown; (P)) [Example 12, N—((S)-1-((3P)-3-(4-chloro-1-methyl-3-(methylsulfonamido)-1H-indazol-7-yl)-7-(cyclobutylmethoxy)-4-oxo-3,4-dihydroquinazolin-2-yl)-2-(3,5-difluorophenyl)ethyl)-2-((3bS,4aR)-3-(difluoromethyl)-5,5-difluoro-3b,4,4a,5-tetrahydro-1H-cyclopropa[3,4]cyclopenta[1,2-c]pyrazol-1-yl)acetamide] | 0.15 | > 1000
11 | Cn1nc(NS(C)(=O)=O)c2c(Cl)ccc(-n3c([C@H](Cc4cc(F)cc(F)c4)NC(=O)Cn4nc(C(F)F)c5c4C(F)(F)[C@@H]4C[C@H]54)nc4cc(OCCn5cccn5)ccc4c3=O)c21 (atropisomer, axis not shown; (P)) [Example 13, N—((S)-1-(7-(2-(1H-pyrazol-1-yl)ethoxy)-(3P)-3-(4-chloro-1-methyl-3-(methylsulfonamido)-1H-indazol-7-yl)-4-oxo-3,4-dihydroquinazolin-2-yl)-2-(3,5-difluorophenyl)ethyl)-2-((3bS,4aR)-3-(difluoromethyl)-5,5-difluoro-3b,4,4a,5-tetrahydro-1H-cyclopropa[3,4]cyclopenta[1,2-c]pyrazol-1-yl)acetamide] | 0.032 | > 1000
